Results on two compounds are retold here after US20250049968A1, “THERAPEUTIC AND IMAGING AGENTS FOR TARGETING MYOCARDIAL TISSUE” (The Board of Regents of the University of Oklahoma, priority 2023, published 2025).

The conditions of series [1]: clinical PK profile; cited from earlier work.
For the next series, the system named is MI hearts. The experiment in a line: Whole-body PET imaging of ^18F-OM for detection of MI in mice. It is filed as in vivo. To be noted: for cardiac uptake in MI hearts compared to sham/normal hearts, PET: occluded left anterior descending coronary artery model. Here is the method:
Approximately 80 uCi of ^18F-OM was injected and images were acquired after 4 h. […] In another non-limiting embodiment of the present disclosure, the OM or OM-liposomes can be labeled with ^18F radionuclide for PET imaging of myocardial infarction as an infarct-avid radiotracer. Unlike radiotracers for perfusion imaging, infarct-avid agents are not taken up by normal myocardium and only accumulate at the site of acute infarct. Therefore, infarct radiotracers produce images with less background and improved signal-to-noise ratio. Currently, no infarct-avid radiotracer is available for clinical PET imaging of infarct tissue. […] After successful labeling, we investigated ^18F-OM for detection of MI in a mouse model of occluded anterior descending branch of the left coronary artery. After imaging, the mice were euthanized to collect various organs for counting of tissue-associated radioactivity.

[2] abbreviates: approx. 80 uCi, images after 4 h, FIG. 6.

In the case of `COC(=O)N1CCN(Cc2cccc(NC(=O)Nc3ccc(C)nc3)c2F)CC1` [OM, omecamtiv mecarbil], the “mean apparent terminal elimination half-life (t1/2)” value in series [1] is on record as 18.5 h.

For `COC(=O)N1CCN(Cc2cccc(NC(=O)Nc3ccc(C)nc3)c2OCCF)CC1` [^18F-OM, Methyl 4-(2-(2-fluoroethoxy)-3-(3-(6-methylpyridin-3-yl)ureido)benzyl)piperazine-1-carboxylate], in the series on MI hearts (FIG. 7), the “accumulation in sham hearts, PET” value is “accumulated significant” and the “cardiac uptake in MI hearts compared to sham/normal hearts, PET” value was “significantly more pronounced”. In the series on MI hearts (PET, mice), the “background signal from accumulation in liver and lung tissue” value is reported as “lack of background signal”. Moreover, in the series on MI hearts (PET, mice, FIG. 6), the “detection of surgical MI, target/non-target ratio” value was “high target/non-target ratio”. In addition, in the series with MI hearts (setting [2]), the “accumulation in hearts of MI mice, whole-body PET” value is “high accumulation” and the “accumulation in normal hearts of control mice, whole-body PET” value was “no visible accumulation”. Further, the “cardiac uptake in MI hearts compared to sham/normal hearts, PET” value in the series with MI hearts (FIG. 7, listed as [18F]-OMA) was “distinctly high uptake”.
